According to article PMC8398878, “Synthesis, Physicochemical Characterization, In Vitro 2D/3D Human Cell Culture, and In Vitro Aerosol Dispersion Performance of Advanced Spray Dried and Co-Spray Dried Angiotensin (1—7) Peptide and PNA5 with Trehalose as Microparticles/Nanoparticles for Targeted Respiratory Delivery as Dry Powder …” (Pharmaceutics, 2021):
Converted amounts (≈) assume the structure as drawn. Like-named read-outs stand apart in the source and are kept apart here. One block for each molecule: values may come before it. Peptide text beside a SMILES is read from it. * marks the point of attachment. βGlc = OC[C@H]1O[C@@H](*)[C@H](O)[C@@H](O)[C@@H]1O

Columns and labels:
[1] = Karl Fisher coulometric titration, residual water content; format: physicochemical; settings: n = 3
Experimental: All powders’ residual water content was quantified by KFT coulometrically using conditions similar to previously reported. A TitroLine® 7500 trace titrator (SI Analytics, Mainz, Germany) was used. A mass of 1–2 mg of powder sample was dissolved in 0.5 mL AQUA STAR anhydrous methanol and injected the sample solution into a reaction cell filled with Hydranal® Coulomat AD reagent. Then obtain the water content of the sample a simple calculation. All experiments were done in triplicate (n = 3).

[2] = tested on: H441 lung epithelial cells; assay: In vitro 2D cell viability, resazurin assay; settings: for safe (non-toxic) concentration: epithelium lung cells (H441)
[3] = tested on: Normal Human Astrocytes (NHA); assay: In vitro 2D cell viability, resazurin assay; settings: for safe (non-toxic) concentration: astrocyte brain cells (NHA)
[4] = Solubility by shake-flask method (SFM) with HPLC; format: physicochemical
Experimental: The solubilities of Ang (1—7) and PNA5 were determined by the SFM using conditions similar to previously reported by our group and in [39, 40, 41, 42]. Each compound’s excess powder was added to a specific volume of different solvents (purified water, phosphate buffered saline (PBS), normal saline (NS), methanol, and ethanol) in closed, light-protected glass vials. The solutions containing excess solid of Ang (1—7) and PNA5 were then capped and agitated at room temperature (25 °C) using a shaker. More powder was added to the vial if the dissolution was complete. The pH value of Ang (1—7) and PNA5 suspensions were adjusted to pH 6.5 (pseudo-isoelectric point calculated by MOE software) to determine the zwitterionic species’ solubilities and ensure the predominant presence of the unionized form of Ang (1—7) and PNA5. The separation of the saturated solution and the precipitate was performed by sedimentation. Aliquots of supernatants were withdrawn from all saturated solutions, diluted with each corresponding solvent, and injected into analytical HPLC. Each compound in each aliquot was measured against a calibration curve using the previously developed analytical HPLC method in our lab. Each compound’s solubility experiments in all solvents were repeated three times (n = 3, mean ± standard deviation).
The HPLC system is LC-2010HT next-generation HPLC (SHIMADZU Tokyo, Japan), and it is the same as previously used in [24]. This system consists of a degassing unit, low-pressure gradient unit, pump unit, mixer, ultra-fast autosampler, column oven, and a UV-VIS detector with a thermostatted flow cell system. The analysis was performed by a reverse phase HPLC assay, using Phenomenex Prodigy 5 um ODS (3) 250 × 4.6 mm HPLC Column. Ultraviolet detection was done at 280 nm. Mobile phase condition was a gradient of acetonitrile in water with 0.1% trifluoroacetic acid at two different percentages pumped from two pumps. The flow was 1 mL/min, the injection volume was 20 μL; the retention time for Ang (1—7) was ~7.7 min and for PNA5 was ~6.7 min. Quantification for both compounds was determined using peak area and calculated from freshly prepared standard curves.

[5] = tested on: A549 lung epithelial cells; assay: In vitro 2D cell viability, resazurin assay; settings: for safe (non-toxic) concentration: epithelium lung cells (A549)
[6] = tested on: RPMI 2650 nasal epithelium cells; assay: In vitro 2D cell viability, resazurin assay; settings: for safe (non-toxic) concentration: nasal epithelium cells (RPMI2650)
[7] = tested on: hCMEC/D3 blood–brain barrier endothelial cells; assay: In vitro 2D cell viability, resazurin assay; settings: for safe (non-toxic) concentration: endothelial brain cells (hCMEC/D3)
Experimental: In vitro human cell viability assays were performed to measure the biocompatibility and safety of Ang (1—7) and PNA5 on nasal epithelium RPMI 2650 cells, hCMEC/D3 blood–brain barrier endothelial cells, NHA, A549, and H441 lung cells using resazurin as a marker.
The immortalized human cerebral microvascular endothelial (hCMEC/D3) at passages 29 and 31 were seeded on collagen-coated culture flasks. Cells were grown in EndoGRO™-MV Complete Media Kit (cat. no. SCME004) supplemented with one ng/mL FGF-2 (cat. no. GF003) and kept in a humidified incubator at 37 °C and 5% CO2.
For passage, all the cell types were detached when confluence reached about 80% by treating the cells with trypsin-EDTA at 37 °C. The effects of Ang (1—7) and PNA5 on cell proliferation were analyzed by measuring all of the above cell line responses to different concentrations of Ang (1—7) and PNA5 separately. The cells were seeded in 96-well black plates at a specific density and were kept to attach for 48 h. Then, the media containing compounds were removed from each well and replaced by 100 μL of media containing 20 μM resazurin sodium salt (was dissolved in un-supplemental media) and incubated for 4 h at 37 °C and 5% CO2. The fluorescence intensity of the metabolite (resorufin) produced by the viable cells was measured at 544 nm (the excitation) and 590 nm (the emission) using the Synergy H1 Multi-Mode Reader (BioTek Instruments Inc., Winooski, VT, USA). The relative cell viability of the cell line was calculated using Equation (6):(6) Relative viability %=Sample fluorescence intensity/Control fluorescence intensity×100%

Water % (w/w) [1]: 8.55 ± 1.50 % (w/w)
Structure (SMILES): OC[C@H]1O[C@H](O[C@H]2O[C@H](CO)[C@@H](O)[C@H](O)[C@H]2O)[C@H](O)[C@@H](O)[C@@H]1O [Raw Trehalose, D (+)-Trehalose dihydrate]

Structure (SMILES): CC[C@H](C)[C@H](NC(=O)[C@H](Cc1ccc(O)cc1)NC(=O)[C@@H](NC(=O)[C@H](CCCNC(=N)N)NC(=O)[C@@H](N)CC(=O)O)C(C)C)C(=O)N[C@@H](Cc1c[nH]cn1)C(=O)N[C@@H](CO[C@@H]1O[C@H](CO)[C@@H](O)[C@H](O)[C@H]1O)C(N)=O [PNA5, Asp-Arg-Val-Tyr-Ile-His-Ser-(O-β-D-Glc)-amide] (H-DRVYIHS(βGlc)-NH2)
relative cell viability% vs control cells ([2]; H441, 0.1, 1, 10 and 1000 µg/mL, p > 0.05, n = 6): no statistically significant difference
safe (non-toxic) concentration [2]: up to 1000 μg/mL
relative cell viability% vs control cells ([3]; NHA, 0.1, 1, 10 and 1000 µg/mL, p > 0.05, n = 6): no statistically significant difference
safe (non-toxic) concentration [3]: up to 1000 μg/mL
Solubility Category According to USP Definition ([4]; Ethanol): Very slightly soluble (VSS)
Solubility Category According to USP Definition ([4]; Methanol): Very slightly soluble (VSS)
solubility thermodynamic ([4]; NS (normal saline), pH 6.5, 25 °C, n = 3): 269.3 ± 1.53 mg/mL (≈ 256 mM)
solubility ([4]; ethanol, 25 °C, n = 3, read-out: Solubility): 0.12 ± 0.003 mg/mL
solubility ([4]; ethanol, footnote: S in mMole unit, read-out: LogS (experimental) (converted)): 0.115 mM
solubility ([4]; methanol, 25 °C, n = 3, read-out: Solubility): 0.34 ± 0.01 mg/mL
solubility ([4]; methanol, footnote: S in mMole unit, read-out: LogS (experimental) (converted)): 0.331 mM
solubility ([4]; normal saline (NS), pH 6.5, NS, footnote: S in mMole unit, read-out: LogS (experimental) (converted)): 257 mM
solubility ([4]; normal saline (NS), pH 6.5, NS, read-out: Solubility Category According to USP Definition): 100 to 1000 mg/mL
solubility ([4]; phosphate buffered saline (PBS), pH 6.5, PBS, footnote: S in mMole unit, read-out: LogS (experimental) (converted)): 288 mM
solubility ([4]; phosphate buffered saline (PBS), pH 6.5, PBS, read-out: Solubility Category According to USP Definition): 100 to 1000 mg/mL
solubility thermodynamic ([4]; phosphate buffered saline (PBS), PBS, pH 6.5, 25 °C, n = 3): 305.05 ± 0.22 mg/mL (≈ 290 mM)
solubility ([4]; purified water, pH 6.5, H2O, footnote: S in mMole unit, read-out: LogS (experimental) (converted)): 263 mM
solubility ([4]; purified water, pH 6.5, H2O, read-out: Solubility Category According to USP Definition): 100 to 1000 mg/mL
solubility thermodynamic ([4]; purified water, H2O, pH 6.5, 25 °C, n = 3): 275.3 ± 2.31 mg/mL (≈ 262 mM)
relative cell viability% vs control cells ([5]; A549, 0.1, 1, 10 and 1000 µg/mL, p > 0.05, n = 6): no statistically significant difference
safe (non-toxic) concentration [5]: up to 1000 μg/mL
relative cell viability% vs control cells ([6]; RPMI2650, 0.1, 1, 10 and 1000 µg/mL, p > 0.05, n = 6): no statistically significant difference
safe (non-toxic) concentration [6]: up to 1000 μg/mL
safe (non-toxic) concentration [7]: up to 1000 μg/mL
relative cell viability% vs control cells ([7]; hCMEC/D3, 0.1, 1, 10 and 1000 µg/mL, p > 0.05, n = 6): no statistically significant difference

Solubility Category According to USP Definition ([4]; Ethanol): Very slightly soluble (VSS)
solubility ([4]; Ethanol, 25 °C, n = 3, read-out: Solubility): 0.16 ± 0.001 mg/mL
solubility ([4]; Ethanol, footnote: S in mMole unit, read-out: LogS (experimental) (converted)): 0.178 mM
solubility ([4]; H2O, footnote: S in mMole unit, read-out: LogS (experimental) (converted)): 195 mM
solubility ([4]; H2O, read-out: Solubility Category According to USP Definition): 100 to 1000 mg/mL
Solubility Category According to USP Definition ([4]; Methanol): Slightly soluble (SS)
solubility ([4]; Methanol, 25 °C, n = 3, read-out: Solubility): 1 ± 0.005 mg/mL
solubility ([4]; Methanol, footnote: S in mMole unit, read-out: LogS (experimental) (converted)): 1.12 mM
solubility ([4]; NS, footnote: S in mMole unit, read-out: LogS (experimental) (converted)): 155 mM
solubility ([4]; NS, read-out: Solubility Category According to USP Definition): 100 to 1000 mg/mL
Solubility Category According to USP Definition ([4]; PBS): Freely Soluble (FS)
solubility ([4]; PBS, footnote: S in mMole unit, read-out: LogS (experimental) (converted)): 186 mM
solubility ([4]; pH 6.5, H2O, pH 6.5, 25 °C, n = 3, read-out: Solubility): 174 ± 0.19 mg/mL
solubility ([4]; pH 6.5, NS (normal saline), pH 6.5, 25 °C, n = 3, read-out: Solubility): 140.4 ± 0.32 mg/mL
solubility ([4]; pH 6.5, PBS, pH 6.5, 25 °C, n = 3, read-out: Solubility): 165.4 ± 0.34 mg/mL
Structure (SMILES): CC[C@H](C)[C@H](NC(=O)[C@H](Cc1ccc(O)cc1)NC(=O)[C@@H](NC(=O)[C@H](CCCNC(=N)N)NC(=O)[C@@H](N)CC(=O)O)C(C)C)C(=O)N[C@@H](Cc1c[nH]cn1)C(=O)N1CCC[C@H]1C(=O)O [Ang (1—7), Asp-Arg-Val-Tyr-Ile-His-Pro]
safe (non-toxic) concentration [2]: up to 1000 μg/mL
safe (non-toxic) concentration [3]: up to 1000 μg/mL
safe (non-toxic) concentration [5]: up to 1000 μg/mL
safe (non-toxic) concentration [6]: up to 1000 μg/mL
safe (non-toxic) concentration [7]: up to 1000 μg/mL
